Experimental data: patent US20100298300A1, “TRIAZOLOPYRAZINE COMPOUNDS USEFUL FOR THE TREATMENT OF DEGENERATIVE & INFLAMMATORY DISEASES” (priority 2006, published 2010)

Columns and labels:
[1] = test system: MMP1 expression by activated primary synovial fibroblasts; experiment: 'MMP assay': MMP1 expression by complex trigger activated synovial fibroblasts (MMP1 ELISA); assay type: cell-based; details: Homo sapiens, Fibroblast, RASFs, complex trigger, 48 hrs, MMP1 ELISA
[2] = test system: TNFα release by human PBMCs; experiment: Cytokine release by LPS stimulated human PBMCs (TNFα ELISA); assay type: cell-based; details: PBMC, 24 h, Table 5, LPS 1 μg/mL
Procedure: For the assay PBMCs are seeded at 2.5E6 cells/mL in 160 μL in 96-well plates (Nunc). Serial dilution of the test compounds are made first in DMSO (Sigma) and then diluted 50-fold in M199 medium (Gibco) containing 1% heat-inactivated FBS. Compounds are further 1/10 diluted in the assay plates to obtain final DMSO concentration of 0.2%. Cells are preincubated with the compounds for 1 hr at 37° C., 5% CO2. Then, cells are stimulated with LPS (Escherichia coli serotype 026:B6, Cat. No. L2654, Sigma) that is added in a volume of 20 μL to a final concentration of 1 μg/mL and cells are further cultured for 24 hr. The plates are centrifuged and the supernatant is collected and stored at −80° C. until analysis of appropriate dilutions in ELISAs.
After 4 hr incubation at RT, blocking buffer is removed and plates are washed once with PBST (1×PBS with 0.05% Tween-20 (Sigma)). Then, 40 μL of sample is transferred to the ELISA plates and plates are incubated at 4° C. […] After 2 h of incubation at RT, plates are washed as described above and 35 μL/well of a 1/2000 dilution of streptavidin-HRP conjugate (Cat. No. SNN2004, Biosource) in buffer D is added. After 45 min, plates are washed as described above and incubated for 5 min with 50 μL/well BM Chemiluminescence ELISA Substrate POD (Roche). Readout is performed on the Luminoscan Ascent Luminometer (Labsystems) with an integration time of 100 msec delivering raw data (RLU: relative luminescence units). The following controls are included in the experiments, a maximal signal control, in which the cells are activated by LPS but only the 0.2% DMSO vehicle (and thus no compound) is added. […] A minimal signal control is also included in these experiments. Here, cells are not triggered. […] Where compounds are tested at 8 concentrations (1/3 serial dilution), EC50-values can be calculated by curve fitting of the means of the PIN data achieved for a compound at each test concentration.

MAPKAPK5 = molecular target: T1, MAPKAPK5 (Homo sapiens, UniProt Q8IW41); experiment: MAPKAP-K5 assay (FlashPlate kinase assay)
T1 sequence (Q8IW41 1-471 isoform Q8IW41-2): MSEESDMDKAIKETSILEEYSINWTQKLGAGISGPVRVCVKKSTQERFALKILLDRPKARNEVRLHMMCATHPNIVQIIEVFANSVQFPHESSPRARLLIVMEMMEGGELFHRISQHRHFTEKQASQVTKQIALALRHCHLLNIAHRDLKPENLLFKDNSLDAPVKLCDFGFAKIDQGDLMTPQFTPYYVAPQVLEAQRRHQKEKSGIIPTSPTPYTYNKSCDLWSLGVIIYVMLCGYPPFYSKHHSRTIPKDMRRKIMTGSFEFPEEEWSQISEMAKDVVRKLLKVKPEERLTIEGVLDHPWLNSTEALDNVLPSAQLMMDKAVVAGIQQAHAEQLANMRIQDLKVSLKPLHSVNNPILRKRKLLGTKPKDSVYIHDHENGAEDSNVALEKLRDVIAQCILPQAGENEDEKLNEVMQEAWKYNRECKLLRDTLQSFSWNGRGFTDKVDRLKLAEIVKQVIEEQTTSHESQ

IC50 (MAPKAPK5) | SMILES | EC50 ([1]; Table 3) | EC50 [2] | EC50 ([1]; Table 4)
> 1000 nM | CNC(=O)c1nc(-c2cnc(Nc3ccc(N4CCN(C(C)C)CC4)cc3)c3ncnn23)cs1 [Compound 74] | > 1000 nM | > 1000 nM | 
1 to 100 nM | CC(C)N1CCN(c2ccc(Nc3ncc(-c4csc(C(N)=O)c4)n4ncnc34)cc2)CC1 [Compound 28, 4-(8-(4-(4-Isopropylpiperazin-1-yl)phenylamino)-[1,2,4]triazolo[1,5-a]pyrazin-5-yl)thiophene-2-carboxamide] | 501 to 1000 nM | > 1000 nM | 
> 1000 nM | FC(F)(F)CN1CCN(c2ccc(Nc3ncc(-c4cn[nH]c4)n4ncnc34)cc2)CC1 [Compound 45] | > 1000 nM | > 1000 nM | 
> 1000 nM | c1nc2c(Nc3ccc(N4CCOCC4)cc3)ncc(-c3ccc4cn[nH]c4c3)n2n1 [Compound 93] | > 1000 nM |  | 
501 to 1000 nM | O=C(NCCc1ccncc1)c1ccc(Nc2ncc(-c3cn[nH]c3)n3ncnc23)cc1 [Compound 137] |  |  | > 1000 nM
> 1000 nM | NC(=O)c1cc(-c2cnc(Nc3ccc(NC(=O)c4ccccc4)nc3)c3ncnn23)cs1 [Compound 133] |  |  | > 1000 nM
> 1000 nM | Nc1nccn1-c1ncc(-c2ccc3c(c2)CNC3=O)n2ncnc12 [Compound 168] | > 1000 nM |  | 
> 1000 nM | COc1cc(Nc2ncc(-c3csc(C(N)=O)c3)n3ncnc23)ccc1C(=O)NCc1ccccc1 [Compound 132] |  |  | > 1000 nM
501 to 1000 nM | O=C(NCCO)c1ccc(Nc2ncc(-c3cn[nH]c3)n3ncnc23)cc1 [Compound 166] |  |  | > 1000 nM
501 to 1000 nM | CCC(C)N1CCN(C(=O)c2ccc(Nc3ncc(-c4cn[nH]c4)n4ncnc34)cc2)CC1 (stereo not shown) [Compound 152] |  |  | > 1000 nM
> 1000 nM | O=C(NCc1ccccn1)c1cccc(Nc2ncc(-c3cn[nH]c3)n3ncnc23)c1 [Compound 124, N-Pyridin-2-ylmethyl 3-[5-(1H-pyrazol-4-yl)-[1,2,4]triazolo[1,5-a]pyrazin-8-ylamino]benzamide] |  |  | > 1000 nM
> 1000 nM | CC(C)CNC(=O)c1ccc(Nc2ncc(-c3cn[nH]c3)n3ncnc23)cc1 [Compound 164] |  |  | > 1000 nM
501 to 1000 nM | O=C(c1ccc(Nc2ncc(-c3cn[nH]c3)n3ncnc23)cc1)N1CCN(c2ccccc2)CC1 [Compound 145] |  |  | > 1000 nM
> 1000 nM | CC(C)N1CCN(c2ccc(Nc3ncc(-c4ccc5c(c4)C(=O)NC5)n4ncnc34)cc2)CC1 [Compound 109] | > 1000 nM |  | 
1 to 100 nM | CC(C)(C)N1CCN(c2ccc(Nc3ncc(-c4coc(C(N)=O)c4)n4ncnc34)cc2)CC1 [Compound 183] | > 1000 nM |  | 
> 1000 nM | O=C(NCc1cccnc1)c1ccc(Nc2ncc(-c3cn[nH]c3)n3ncnc23)cc1 [Compound 118, 4-(5-(1H-Pyrazol-4-yl)-[1,2,4]triazolo[1,5-a]pyrazin-8-ylamino)-N-(pyridin-3-ylmethyl)benzamide] |  |  | > 1000 nM
501 to 1000 nM | O=C(c1ccc(Nc2ncc(-c3cn[nH]c3)n3ncnc23)cc1)N1CC=CC1 [Compound 140] |  |  | > 1000 nM
> 1000 nM | COCCN(C)C(=O)c1ccc(Nc2ncc(-c3cn[nH]c3)n3ncnc23)cc1 [Compound 156] |  |  | > 1000 nM
> 1000 nM | O=C(Nc1cn(Cc2ccccc2)cn1)c1ccc(Nc2ncc(-c3cn[nH]c3)n3ncnc23)cc1 [Compound 198] |  |  | > 1000 nM
101 to 500 nM | O=C1NCc2oc(-c3cnc(Nc4ccc(N5CCOCC5)cc4)c4ncnn34)cc21 [Compound 111] | > 1000 nM |  | 
> 1000 nM | O=C(NCc1ccccc1)c1cccc(Nc2ncc(-c3cn[nH]c3)n3ncnc23)c1 [Compound 123] |  |  | > 1000 nM

IC50 (MAPKAPK5) | SMILES | EC50 ([1]; Table 3) | EC50 [2] | EC50 ([1]; Table 4)
> 1000 nM | O=C1CNCCN1c1ccc(Nc2ncc(-c3cn[nH]c3)n3ncnc23)cc1 [Compound 100, 1-(4-(5-(1H-Pyrazol-4-yl)-[1,2,4]triazolo[1,5-a]pyrazin-8-ylamino)phenyl)piperazin-2-one] | > 1000 nM |  | 
> 1000 nM | COc1cc(Nc2ncc(-c3csc(C(N)=O)c3)n3ncnc23)ccc1C(=O)NCc1ccc(C)nc1 [Compound 121] |  |  | > 1000 nM
> 1000 nM | CCNC(=O)c1cccc(Nc2ncc(-c3cn[nH]c3)n3ncnc23)c1 [Compound 129, N-Ethyl 3-[5-(1H-pyrazol-4-yl)-[1,2,4]triazolo[1,5-a]pyrazin-8-ylamino]benzamide] |  |  | > 1000 nM
> 1000 nM | COc1cc(Nc2ncc(-c3cn[nH]c3)n3ncnc23)ccc1C(=O)NCc1ccccc1 [Compound 122, N-Benzyl-2-methoxy-4-[5-(1H-pyrazol-4-yl)-[1,2,4]triazolo[1,5-a]pyrazin-8-ylamino]-benzamide] |  |  | > 1000 nM
> 1000 nM | CC(C)N1CCN(c2ccc(Nc3ncc(-c4cn[nH]c4)n4ncnc34)cn2)CC1 [Compound 43, [6-(4-Isopropylpiperazin-1-yl)pyridin-3-yl]-[5-(1H-pyrazol-4-yl)-[1,2,4]triazolo[1,5-a]pyrazin-8-yl]amine] | > 1000 nM |  | 
> 1000 nM | O=C(NCc1cc(-c2ccccc2)on1)c1ccc(Nc2ncc(-c3cn[nH]c3)n3ncnc23)cc1 [Compound 192] |  |  | 101 to 500 nM
101 to 500 nM | O=C1NCc2cc(-c3cnc(NCC4CCCCC4)c4ncnn34)ccc21 [Compound 184] | > 1000 nM |  | 
501 to 1000 nM | CNC(=O)C1CCN(C(=O)c2ccc(Nc3ncc(-c4cn[nH]c4)n4ncnc34)cc2)CC1 [Compound 136] |  |  | > 1000 nM
501 to 1000 nM | CN1CCN(c2ccc(NC(=O)c3ccc(Nc4ncc(-c5cn[nH]c5)n5ncnc45)cc3)cc2)CC1 [Compound 153] |  |  | > 1000 nM
501 to 1000 nM | CCN1CCN(C(=O)c2ccc(Nc3ncc(-c4cn[nH]c4)n4ncnc34)cc2)CC1 [Compound 138] |  |  | > 1000 nM
> 1000 nM | CCC(COC)NC(=O)c1ccc(Nc2ncc(-c3cn[nH]c3)n3ncnc23)cc1 (stereo not shown) [Compound 149] |  |  | > 1000 nM
> 1000 nM | CCN(CCOC)C(=O)c1ccc(Nc2ncc(-c3cn[nH]c3)n3ncnc23)cc1 [Compound 157] |  |  | > 1000 nM
> 1000 nM | O=C(NCc1ccc(O)cc1)c1cccc(Nc2ncc(-c3cn[nH]c3)n3ncnc23)c1 [Compound 131, N-(4-Hydroxybenzyl) 3-[5-(1H-pyrazol-4-yl)-[1,2,4]triazolo[1,5-a]pyrazin-8-ylamino]benzamide] |  |  | 501 to 1000 nM
1 to 100 nM | CC(C)N1CCN(c2ccc(Nc3ncc(-c4coc(C(N)=O)c4)n4ncnc34)cc2)CC1 [Compound 88, 4-(8-(4-(4-Isopropylpiperazin-1-yl)phenylamino)-[1,2,4]triazolo[1,5-a]pyrazin-5-yl)furan-2-carboxamide] | 501 to 1000 nM |  | 
> 1000 nM | COc1cc(Nc2ncc(-c3cn[nH]c3)n3ncnc23)ccc1C(=O)NCc1ccc(C)nc1 [Compound 120, 2-Methoxy-N-(6-methylpyridin-3-yl)methyl-4-[5-(1H-pyrazol-4-yl)-[1,2,4]triazolo[1,5-a]pyrazin-8-ylamino]-benzamide] |  |  | > 1000 nM
> 1000 nM | O=C(Nc1ccc(N2CCOCC2)nc1)c1ccc(Nc2ncc(-c3ccc4c(c3)CNC4=O)n3ncnc23)cc1 [Compound 193] |  |  | > 1000 nM
> 1000 nM | O=C(NCC1CCCCC1)c1cccc(Nc2ncc(-c3cn[nH]c3)n3ncnc23)c1 [Compound 130] |  |  | > 1000 nM
101 to 500 nM | O=C1NCc2cc(-c3cnc(NC4CCC4)c4ncnn34)ccc21 [Compound 182] | > 1000 nM |  | 
> 1000 nM | COC[C@@H]1CCCN1C(=O)c1ccc(Nc2ncc(-c3cn[nH]c3)n3ncnc23)cc1 [Compound 146] |  |  | > 1000 nM
501 to 1000 nM | CC(C)(C)NC(=O)N1CCC(Nc2ncc(-c3ccc4c(c3)CNC4=O)n3ncnc23)CC1 [Compound 178] | > 1000 nM |  | 
